{"source": "patent US20210386813A1", "about": "“COMPOSITION FOR TREATING OVERWEIGHT AND/OR OBESITY” (NEXIRA, priority 2018, published 2021)", "key": {"adipocytes": {"system": "adipocytes", "experiment": "Lipolysis study of mature adipocytes (glycerol and NEFA release)", "type": "cell-based", "conditions": "human adipocytes, 2 h at 37° C.; forskolin 1 μM, isoproterenol 0.1 μM; 100 = Base control", "protocol": "The quantification of the production of glycerol is performed by means of the Glycerol Assay Kit test kit available from Randox under the reference GY105.\nThe quantification of the production of non-esterified fatty acids is performed by the NEFA HR2—RI Set, NEFA HR2—R2 Set and NEFA Standard test kits available from Fujifilm Wako Chemicals Europe under the respective references 434-91795, 436-91995 and 270-77000.\nEach of these kits is based on the production of a colored compound. Thus, the respective concentrations of glycerol and non-esterified fatty acids are determined by means of optical absorbance measurements, and the comparison of these measurements with known absorbance ranges for glycerol and non-esterified fatty acid concentrations. The values are normalized by DNA quantification by means of the Quant-iT® PicoGreen® (Invitrogen®) kit available from ThermoFisher Scientific under the reference P7589.\nAdipocytes coming from humans are used for the lipolysis study.\nThe adipocytes are prepared from subcutaneous adipose tissue digested by collagenase followed by a low centrifugation.\nThe adipocytes are incubated in a Krebs-Ringer bicarbonate (KRB) buffer solution, sometimes containing basolateral medium of caco-2 cells exposed with, either predetermined concentrations of extract(s) (at a rate of one 1:8 dilution each), or with reference products. The incubation time is 2 h at a temperature of 37° C. The cell culture medium is subsequently harvested and frozen at a temperature of −20° C. for use in the glycerol and NEFA tests. The adipocytes are also harvested for the DNA quantification.\nForskolin (1 μM, available from Sigma-Aldrich under the reference F6886) and isoproterenol (0.1 μM, available from Sigma-Aldrich under the reference 16504) are used as lipolysis activators.\nThe results are expressed in percentages in relation to the results obtained for respective BM media without extracts. The statistical analyses are performed by placing the BM environments comprising the extracts in relation with the respective BM environments without extracts."}, "UCP1": {"system": "UCP1", "experiment": "Adipose tissue phenotypic orientation (thermogenesis) study, UCP1 expression by immunofluorescence", "type": "cell-based", "conditions": "human preadipocytes; GW9662; relative to differentiated cells", "text": "The Applicant evaluated the effects of a multitude of bioavailable plant extracts, as well as the effects of the combination of these extracts, on the differentiation of preadipocytes or adipocytes into beige adipocytes. More generally the Applicant evaluated the orientation of a white phenotype towards a beige phenotype.\nPreadipocytes coming from humans are used for the cellular differentiation study. The three donors are those of the cytotoxicity study (I) above.\n(§1) The preadipocytes are isolated by digestion and centrifugation in accordance with the protocol described for the cytotoxicity study (I) above. The preadipocytes are spread at high density on microtiter plate 96 and cultivated according to the protocol described for the lipid accumulation study (II). The placing in contact with the basolateral medium is performed according to the protocol described for the lipid accumulation study (II).\nAfter the culture, the differentiated cells are fixed with a 4% paraformaldehyde solution then colored with an anti-UCP1 fluorescent antibody available from Sigma-Aldrich under the reference U6382. […]\nThe quantification is based on fluorescence intensity measurements on images. […]\nFluorescence microphotographs are performed to quantify the UCP1 expression. […]"}, "preadipocytes [1]": {"system": "preadipocytes", "experiment": "Preadipocyte differentiation and lipid accumulation (adipogenesis) study, BODIPY fluorescence", "type": "cell-based", "conditions": "human preadipocytes; GW9662 0.1 μM; relative to differentiated cells", "procedure": "In practice, the effects of the bioavailable extracts on the lipid accumulation are studied by measuring the accumulation of lipid droplets in the differentiated preadipocytes, that is to say in the adipocytes. The measurement is optical and is performed by fluorescence.\nPreadipocytes coming from humans are used for the lipid accumulation study.\nThe three adipose tissue donors are adult females undergoing a cosmetic or reconstructive surgery intervention.\nThe preadipocytes are isolated by digestion and centrifugation in accordance with the protocol described for the cytotoxicity study (I) above. […]\nThe quantification is based on fluorescence intensity measurements on images. The acquisition and the processing of images includes particularly: • the acquisition of microphotographs with a video microscope using the so-called Apotome technology (7 micrographs per well, 3 wells per processing condition); • the quantification of the lipid accumulation by the treatment and the image analysis of the ImageJ software developed by National Institutes of Health (NIH); • the determination of the number of nuclei by means of a shape detection and shape sorting algorithm based on the nucleus size and the circularity of the nucleus; • the connection between the fluorescence detected and the number of nuclei. […]\nFluorescence microphotographs are performed to quantify the lipid accumulation (Bodipy®). […]"}, "[2]": {"system": "differentiated preadipocytes", "experiment": "Adipose tissue energy metabolism study, ATP production (Mitochondrial ToxGlo)", "type": "cell-based, human", "conditions": "differentiated cells; rotenone 400 nM, 2 hours", "procedure": "In order to study the energy metabolism, the ATP production is measured in the differentiated preadipocytes. This provides information on the presence of mitochondria and their activity. Here, the Mitochondrial ToxGlo® test available from Promega under the reference G8000 is used.\nThe test includes placing preadipocytes in contact with an ATP detection reagent. […] The ATP detection reagent comprises luciferin, ATPase inhibitors and Ultra-Glo® thermostable luciferase. The values are normalized with a DAPI quantification. The Normalization is carried out exclusively in relation to the basolateral medium.\nPreadipocytes coming from humans are used for the energy metabolism study. The three donors are those of the cytotoxicity study (I) above.\nas §1\nThe quantification of the ATP synthesis is performed on differentiated cells.\nThe basolateral medium (BM) comprising the bioavailable extracts of the Caco-2 cell system is harvested for the test. […]"}, "preadipocytes [3]": {"system": "preadipocytes", "experiment": "Cellular viability / mitochondrial activity (MTS formazan, Cell Titer 96 AQueous One)", "type": "cell-based", "conditions": "human preadipocytes; relative to FBS 1% base control; 0.2% triton", "procedure": "The cytotoxic effects of bioavailable plant extracts and their combinations was evaluated on preadipocytes. Two technical approaches were implemented: • the evaluation of the cellular viability by the measurement of the production of formazan by active (therefore living) cells; and • the analysis of the damage of cell membranes by the measurement of lactate dehydrogenase (LDH) in the cell culture medium.\nThe evaluation of the cellular viability is performed with the Cell Titer 96® AQueous One Solution Cell Proliferation Assay test kit available from Promega under the reference G3580.\nIn this test, the compound MTS-tetrazolium (3-(4,5-dimethylthiazol-2-yl)-5-(3-carboxymethoxyphenyl)-2-(4-sulfophenyl)-2H-tetrazolium) is transformed by active (living) cells in a culture medium in colored formazan. The transformation of MTS-tetrazolium is performed by the mitochondria in the cells. Formazan is soluble in the culture medium. The quantity of formazan is directly proportional to the number of living cells and may be measured by spectrophotometry (absorbance).\nIn practice, the cellular viability test is therefore based on the mitochondrial activity of the cells.\nAs a result, the viability study may provide precious information for the energy metabolism study (IV). […]\nThe cellular viability is measured directly in the wells of the microtiter plate. […]"}, "preadipocytes [4]": {"system": "preadipocytes", "experiment": "Cytotoxicity study of bioavailable plant extracts on human preadipocytes (LDH release, CytoTox 96)", "type": "cell-based", "conditions": "relative to FBS 1% base control, 0.2% triton", "procedure": "The analysis of the damage of cell membranes is performed with the CytoTox 96® Non-Radioactive Cytotoxicity Assay kit available from Promega under the reference G1780. This test is based on the principle that cells having a damaged cell membrane release […] (LDH) into the culture medium. LDH is measured by supplying in the medium lactate, oxidized nicotinamide adenine dinucleotide (NAD+) and iodonitrotetrazolium purple as substrates in presence of diaphorase. Red formazan is then created. The red formazan is proportional to the LDH released by the cells. The Applicant evaluated the cytotoxic effects of a multitude of bioavailable plant extracts, as well as the cytotoxic effects of the combination of these extracts, on preadipocytes coming from various donors. The cytotoxic effects of bioavailable plant extracts and their combinations was evaluated on preadipocytes. […] An extract is considered as cytotoxic if the LDH level measured is greater than or equal to 20% in relation to the LDH level measured with the control extract. […] The results are expressed in percentages in relation to the control extract; except for the LDH test, for which the results are expressed as percentages of the cell lysis control (average+/− SEM), which represents the positive control for the cytotoxicity (the control is fixed at 100%). […]"}}, "note": "Marks after values point to notes of the source that are not given here.", "data": [{"compound": "C=C[C@@]1(C)CC(=O)[C@]2(O)[C@@]3(C)[C@@H](O)CCC(C)(C)[C@@H]3[C@H](O)[C@H](OC(C)=O)[C@@]2(C)O1", "note": "[Forskolin]", "values": [{"measurement": "Glycerol % Differentiated", "setting": "adipocytes", "result": "151.62** % Differentiated"}, {"measurement": "NEFA % Differentiated", "setting": "adipocytes", "result": "179.70** % Differentiated"}]}, {"compound": "O=C(Nc1ccccc1)c1cc([N+](=O)[O-])ccc1Cl", "note": "[GW9662]", "values": [{"measurement": "UCP1 expression (total cell normalization) % Differentiated", "setting": "UCP1", "result": 83.38, "unit": "% Differentiated"}, {"measurement": "Lipid accumulation % Differentiated", "setting": "preadipocytes [1]", "result": "30.59* % Differentiated"}]}, {"compound": "CC(C)NCC(O)c1ccc(O)c(O)c1", "note": "(stereo not drawn) [Isoproterenol]", "values": [{"measurement": "Glycerol % Differentiated", "setting": "adipocytes", "result": "213.97** % Differentiated"}, {"measurement": "NEFA % Differentiated", "setting": "adipocytes", "result": "241.48** % Differentiated"}]}, {"compound": "C=C(C)[C@H]1Cc2c(ccc3c2O[C@@H]2COc4cc(OC)c(OC)cc4[C@@H]2C3=O)O1", "note": "[Rotenone, rotenone]", "values": [{"measurement": "ATP production % Differentiated", "setting": "[2]", "result": "27.95** % Differentiated"}]}, {"compound": "triton [Lysis control]", "values": [{"measurement": "Mitochondrial Activity (viability) % Base control", "setting": "preadipocytes [3]", "result": "23.78** % Base control"}, {"measurement": "Cytotoxicity % Base control (release of LDH)", "setting": "preadipocytes [4]", "result": "1,252.05** % Base control"}]}]}
